Active and inactive are the calls of the source. The rule behind the calls is not given here.
Columns and labels:
Staphylococcus aureus [1] = test: Antibacterial activity against methicillin-resistant Staphylococcus aureus clinical isolate M-19 incubated for 14 hrs by two-fold serial dilution method; format: functional
[2] = Hemolytic activity in sheep RBC assessed as hemolysis at 1024 ug/ml incubated for 1 hrs relative to control; format: toxicity, cell-based, Ovis aries, Erythrocyte; conditions: sheep red blood cells, at 1024 µg/mL, read-out: Activity
Staphylococcus aureus [3] = test: Antibacterial activity against methicillin-resistant Staphylococcus aureus assessed as reduction in bacterial growth by measuring fold increase in MIC in presence of 32 ug/ml peptidoglycan incubated for 0.5 hrs by exogenous addition assay; format: functional
Staphylococcus aureus [4] = test: Antibacterial activity against Staphylococcus aureus ATCC 29213 assessed as inhibition of bacterial growth incubated for 14 hrs by two-fold serial dilution method; format: functional
Staphylococcus aureus [5] = test: Antibacterial activity against methicillin-resistant Staphylococcus aureus assessed as reduction in metabolic activity at 2 ug/ml incubated for 8 hrs by alamar blue staining based analysis relative to control; format: functional; design: scale not given: the % may be the effect or the level left; conditions: dose 2 µg/ml
Staphylococcus aureus [6] = test: Antibacterial activity against Staphylococcus aureus ATCC 33591 assessed as log reduction in bacterial growth at 4 times MIC measured at 6 hrs by time-kill kinetic assay; format: functional
[7] = Toxicity in female Kunming mouse assessed as pathological changes in liver at 500 to 2000 mg/kg, sc measured after 7 days by H and E staining based analysis; format: organism-based; conditions: in vivo, 168 h, dose 500-2000 mg/kg, time 7 day
Cell membrane [8] = test: Induction of cell membrane permeability in methicillin-resistant Staphylococcus aureus assessed as increase in protein leakage at 2 ug/ml incubated for 8 hrs by Bradford assay; format: subcellular; conditions: dose 2.0 µg/ml
[9] = Acute toxicity in female Kunming mouse assessed as aberrant behavior at 500 to 2000 mg/kg, sc measured after 7 days; format: organism-based; conditions: in vivo, 168 h, dose 500-2000 mg/kg, time 7 day
Staphylococcus aureus [10] = test: Induction of oxidative damage in methicillin-resistant Staphylococcus aureus assessed as reduction in SOD activity incubated for 8 hrs; format: functional, organism-based; conditions: dose 0.25-2 µg/ml
Staphylococcus aureus [11] = test: Induction of morphological changes in methicillin-resistant Staphylococcus aureus assessed as appearance of rough cell surface at 0.5 ug/ml incubated for 6 hrs by SEM analysis; format: functional, organism-based; conditions: dose 0.5 µg/ml
Staphylococcus aureus [12] = test: In vivo antibacterial activity against methicillin-resistant Staphylococcus aureus infected in female Kunming mouse skin infection model assessed as recovery of dorsal surface at 5 to 20 mg/kg measured after 48 hrs; format: functional, organism-based; conditions: dose 5-20 mg/kg
[13] = Acute toxicity in female Kunming mouse assessed as aberrant appearance at 500 to 2000 mg/kg, sc measured after 7 days; format: organism-based; conditions: in vivo, 168 h, dose 500-2000 mg/kg, time 7 day
Staphylococcus aureus [14] = test: Antibacterial activity against methicillin-resistant Staphylococcus aureus clinical isolate M-16 incubated for 14 hrs by two-fold serial dilution method; format: functional
[15] = Toxicity in female Kunming mouse assessed as inflammatory response in liver at 500 to 2000 mg/kg, sc measured after 7 days by H and E staining based analysis; format: organism-based; conditions: in vivo, 168 h, dose 500-2000 mg/kg, time 7 day
[16] = Toxicity in female Kunming mouse assessed as inflammatory response in kidney at 500 to 2000 mg/kg, sc measured after 7 days by H and E staining based analysis; format: organism-based; conditions: in vivo, 168 h, dose 500-2000 mg/kg, time 7 day
[17] = Toxicity in female Kunming mouse assessed as inflammatory cell infiltration at 5 to 20 mg/kg, sc measured after 48 hrs by H and E staining based analysis; format: organism-based; conditions: in vivo, dose 5-20 mg/kg
L02 = test: Cytotoxicity against human L02 cells assessed as reduction in cell viability at 4 ug/ml incubated for 24 hrs by CCK-8 assay relative to control; format: toxicity, cell-based; conditions: l02, 24 h, at 4 µg/mL
Staphylococcus aureus [18] = test: Antibacterial activity against methicillin-resistant Staphylococcus aureus clinical isolate M-13 incubated for 14 hrs by two-fold serial dilution method; format: functional
Calf thymus DNA = test: Binding affinity to calf thymus DNA assessed as change in Gibbs free energy at 3 uM by ITC assay; format: nucleic-acid assay; conditions: Bos taurus
Staphylococcus aureus [19] = test: Antibiofilm activity against methicillin-resistant Staphylococcus aureus assessed as inhibition of biofilm formation at 4 ug/ml incubated for 24 hrs by crystal violet staining based analysis relative to control; format: functional; design: scale not given: the % may be the effect or the level left; conditions: dose 4 µg/ml
Staphylococcus aureus [20] = test: In vivo antibacterial activity against methicillin-resistant Staphylococcus aureus infected in female Kunming mouse skin infection model assessed as reduction in bacterial load measured after 48 hrs; format: functional, organism-based; conditions: dose 5-20 mg/kg
[21] = Toxicity in female Kunming mouse assessed as abnormality inside skin at 5 to 20 mg/kg, sc measured after 48 hrs; format: organism-based; conditions: in vivo, dose 5-20 mg/kg
Staphylococcus aureus [22] = test: Antibacterial activity against Staphylococcus aureus CMCC 26003 assessed as inhibition of bacterial growth incubated for 14 hrs by two-fold serial dilution method; format: functional
Staphylococcus aureus [23] = test: Antibacterial activity against Staphylococcus aureus ATCC 33591 assessed as log reduction in bacterial growth at 1 times MIC measured at 6 hrs by time-kill kinetic assay; format: functional
Staphylococcus aureus [24] = test: Antibacterial activity against Staphylococcus aureus ATCC 33591 assessed as inhibition of bacterial growth at 0.5 times MIC measured at 0 to 12 hrs by growth kinetic assay; format: functional, organism-based; conditions: time 0-12 hrs
Staphylococcus aureus [25] = test: Induction of morphological changes in methicillin-resistant Staphylococcus aureus assessed as appearance of broken cells at 0.5 ug/ml incubated for 6 hrs by SEM analysis; format: functional, organism-based; conditions: dose 0.5 µg/ml
Staphylococcus aureus [26] = test: Antibacterial activity against methicillin-resistant Staphylococcus aureus clinical isolate M-15 incubated for 14 hrs by two-fold serial dilution method; format: functional
Staphylococcus aureus [27] = test: Antibacterial activity against methicillin-resistant Staphylococcus aureus assessed as reduction in LDH activity incubated for 8 hrs; format: functional, organism-based; conditions: dose 0.25-2 µg/ml
Cell membrane [28] = test: Induction of cytoplasmic membrane depolarization in methicillin-resistant Staphylococcus aureus assessed as increase in fluorescence intensity by DiSC35 dye based microplate reader analysis; format: subcellular
Staphylococcus aureus [29] = test: Antibacterial activity against methicillin-resistant Staphylococcus aureus ATCC 33591 assessed as inhibition of bacterial growth incubated for 14 hrs by two-fold serial dilution method; format: functional

**Q.** Which MIC (Staphylococcus aureus [1]) does the source give for `C[n+]1ccc2c3ccccc3n(CCCCCCCCCCCn3c4ccccc4c4cc[n+](C)cc43)c2c1.[I-].[I-]` here?
**A.** 0.5 µg/mL

**Q.** And the hemolysis at 1 h, 1024 ug/ml [2]?
**A.** 26.4%

**Q.** And the “fold change (FC)” value (Staphylococcus aureus [3])?
**A.** 4

**Q.** What about the MIC (Staphylococcus aureus [4]) of the same molecule?
**A.** 1 µg/mL

**Q.** And the Activity (Staphylococcus aureus [5])?
**A.** 64.56%

**Q.** What about the Activity (Staphylococcus aureus [6]) of the same molecule?
**A.** 5.31 log10CFU/ml

**Q.** And the Activity [7]?
**A.** Non-toxic

**Q.** What about the Activity (Cell membrane [8]) of the same molecule?
**A.** 27.8 µg/mL

**Q.** And the Activity [9]?
**A.** Non-toxic

**Q.** What about the Activity (Staphylococcus aureus [10]) of the same molecule?
**A.** Dose-dependent-effect

**Q.** What about the Activity (Staphylococcus aureus [11]) of the same molecule?
**A.** Active

**Q.** And the Activity (Staphylococcus aureus [12])?
**A.** Active

**Q.** What about the Activity [13] of the same molecule?
**A.** Non-toxic

**Q.** What about the MIC (Staphylococcus aureus [14]) of the same molecule?
**A.** 0.5 µg/mL

**Q.** What about the Activity [15] of the same molecule?
**A.** Non-toxic

**Q.** What about the Activity [16] of the same molecule?
**A.** Non-toxic

**Q.** What about the Activity [17] of the same molecule?
**A.** Non-toxic

**Q.** What about the Activity (L02) of the same molecule?
**A.** 71.86%

**Q.** And the MIC (Staphylococcus aureus [18])?
**A.** 1 µg/mL

**Q.** What about the deltaG (Calf thymus DNA) of the same molecule?
**A.** -30.5 kJ/mol

**Q.** What about the Activity (Staphylococcus aureus [19]) of the same molecule?
**A.** 98%

**Q.** What about the Activity (Staphylococcus aureus [20]) of the same molecule?
**A.** Dose-dependent-effect

**Q.** And the Activity [21]?
**A.** Non-toxic

**Q.** What about the MIC (Staphylococcus aureus [22]) of the same molecule?
**A.** 0.25 µg/mL

**Q.** And the Activity (Staphylococcus aureus [23])?
**A.** 3.95 log10CFU/ml

**Q.** And the Activity (Staphylococcus aureus [24])?
**A.** Active

**Q.** What about the Activity (Staphylococcus aureus [25]) of the same molecule?
**A.** Active

**Q.** And the MIC (Staphylococcus aureus [26])?
**A.** 0.5 µg/mL

**Q.** And the Activity (Staphylococcus aureus [27])?
**A.** Dose-dependent-effect

**Q.** What about the Activity (Cell membrane [28]) of the same molecule?
**A.** Dose-dependent-effect

**Q.** What about the MIC (Staphylococcus aureus [29]) of the same molecule?
**A.** 0.25 µg/mL

Reference: ChEMBL document CHEMBL6177951, “Synthesis and anti-MRSA activity of quaternized small molecule antimicrobial peptide mimics based on norharmane” (Eur J Med Chem, 2025)
